# Earlier results in patent US4788322A, “Process for preparing ACHPA” (Merck & Co., Inc., priority 1987, dated 1988).
# Square brackets hold non-standard residues; d marks the D form. Peptide text beside a SMILES is read from it. * marks the point of attachment. Sta = CC(C)C[C@H](N)[C@@H](O)CC(=O)O; Isovaleryl = CC(C)CC(=O)*
# Tested on: hog renin
# Conditions: after injection of hog renin into nephrectomized rats; Gross et al., Science 1972
smiles,measurement,value
CC(C)CC(=O)N[C@H](C(=O)N[C@H](C(=O)N[C@@H](CC(C)C)[C@@H](O)CC(=O)N[C@@H](C)C(=O)N[C@@H](CC(C)C)[C@@H](O)CC(=O)O)C(C)C)C(C)C [pepstatin] (Isovaleryl-VV[Sta]A[Sta]-OH),blood pressure in vivo,reduces blood pressure
